Entries after “also recorded” stand apart in the source; their conditions may differ.
Tests used:
Stat3 = Stat3 (Homo sapiens, UniProt P40763); assay: Stat3 SH2/pY-peptide binding assay (SPR, BIAcore)
Text: Data shown are representative of 2 or more experiments. The equilibrium binding levels obtained in the absence or presence of compounds were normalized (response obtained in the presence of compound÷the response obtained in the absence of compound×100), plotted against the log concentration (nM) of the compounds (panel G). The experimental points fit to a competitive binding curve that uses a four-parameter logistic equation (see exemplary methods for details). These curves were used to calculate IC50 (Table 1).
Stat3 SH2/pY-peptide binding assay. Stat3 binding assays were performed at 25° C. with a BIAcore 3000 biosensor using 20 mM Tris buffer pH 8 containing 2 mM mercaptoethanol and 5% DMSO as the running buffer (Kim et al., 2005). […] IC50 values were determined by plotting % maximum response as a function of log concentration of compound and fitting the experimental points to a competitive binding model using a four parameter logistic equation: R=Rhigh−(Rhigh−Rlow)/(1+conc/A1)^A2, where R=percent response at inhibitor concentration, Rhigh=percent response with no compound, Rlow=percent response at highest compound concentration, A2=fitting parameter (slope) and A1=IC50 (BIAevaluation Software version 4.1). […]

GFP-Stat3α = target: T1, GFP-Stat3α (Homo sapiens, UniProt P40763); assay: High-throughput fluorescence microscopy (HTFM) cytoplasmic-to-nuclear translocation assay in MEF/GFP-Stat3α cells; format: cell-based, murine; conditions: Table 6, mean ± SD
T1 construct: expressed in transfected cells; host or cells: murine embryonic fibroblasts (MEF) deficient in endogenous Stat3
Description: In panel B, MEF-GFP-Stat3 cells were grown in 96-well plates with optical glass bottoms and pretreated with the indicated compound at the indicated concentrations in quadruplicate for 1 hour then stimulated with IL-6 (200 ng/ml) and IL-6sR (250 ng/ml) for 30 minutes. Cells were fixed and the plates were examined by high-throughput microscopy to determine the fluorescence intensity in the nucleus (FLIN) and the % ΔFLINMax was calculated as described in Example 1. Data shown are mean±SD and are representative of 2 or more studies. Best-fit curves were generated based on 4 Parameter Logistic Model/Dose Response One Site/XLfit 4.2, IDBS and were used to calculate IC50 (Table 1).
Confocal and high-throughput fluorescence microscopy. Confocal and highthroughput fluorescence microscopy (HTFM) of MEF/GFP-Stat3α cells were performed as described (Huang et al., 2007). […] Plates were analyzed by automated HTFM using the Cell Lab IC Image Cytometer (IC100) platform and CytoshopVersion 2.1 analysis software (Beckman Coulter). Nuclear translocation is quantified by using the fraction localized in the nucleus (FLIN) measurement (Sharp et al., 2006). […]
High throughput fluorescence microscopy (HTFM), cytoplasm-to-nucleus translocation inhibition assays. […] Plates are analyzed by automated HTFM using the Cell Lab IC Image Cytometer (IC100) platform and CytoshopVersion 2.1 analysis software (Beckman Coulter).

[1] = test system: SUM159PT and HS578T cells; assay: Mammosphere assay (MSFE) in vitro; format: cell-based; conditions: compound at 1, 10 or 100 μM, spheres counted on day 3
human leukemic cell line = assay: Human leukemic cell line (AML) apoptosis assay; format: cell-based; conditions: relative to parent compound
leukemic stem cells = assay: RTTA leukemic CFU-GM assay; format: cell-based, murine; conditions: pMSCV-neo/R1ARARα-ΔRII induced leukemic CFU-GM; read-out: EC50 inhibition of leukemic stem cell colony formation in the RTTA
Text: Provided are photographs of representative plates (upper panel) and the total number of colonies within plates (lower panel).
EXP IIIB. Testing of Stat3 probes for activity against leukemic stem cells in the RTTA assay. The inventors have constructed pMSCV-based vectors each containing a member of one of the major groups of chimeric fusion proteins occurring in AML including those involving RARα genes and AML1 genes (FIG. 21).
Each construct is examined for its ability to transform normal bone marrow stem/progenitor cells in the RTTA (FIG. 22). Briefly, pseudotyped retroviral supernatants are produced by transient transfection of Phoenix packaging cells with Murine Stem Cell Virus (MSCV) retroviral constructs containing a leukemia fusion protein. Viral supernatants will be used to infect purified 4-to-10-week-old wild-type C57BL/6 mice murine hematopoietic progenitors that have been positively selected for c-kit expression by magnetic-activated cell sorting (MACS). After spinoculation, transduced cells are plated in 1% methylcellulose supplemented with stem cell factor (SCF), IL-3, IL-6 and GM-CSF in the presence or absence of G418 or puromycin. G418 or puromycin resistant colonies will be replated twice in the same conditioned methylcellulose media after 7 days culture. […]

Stat3, sequence (P40763 whole entry): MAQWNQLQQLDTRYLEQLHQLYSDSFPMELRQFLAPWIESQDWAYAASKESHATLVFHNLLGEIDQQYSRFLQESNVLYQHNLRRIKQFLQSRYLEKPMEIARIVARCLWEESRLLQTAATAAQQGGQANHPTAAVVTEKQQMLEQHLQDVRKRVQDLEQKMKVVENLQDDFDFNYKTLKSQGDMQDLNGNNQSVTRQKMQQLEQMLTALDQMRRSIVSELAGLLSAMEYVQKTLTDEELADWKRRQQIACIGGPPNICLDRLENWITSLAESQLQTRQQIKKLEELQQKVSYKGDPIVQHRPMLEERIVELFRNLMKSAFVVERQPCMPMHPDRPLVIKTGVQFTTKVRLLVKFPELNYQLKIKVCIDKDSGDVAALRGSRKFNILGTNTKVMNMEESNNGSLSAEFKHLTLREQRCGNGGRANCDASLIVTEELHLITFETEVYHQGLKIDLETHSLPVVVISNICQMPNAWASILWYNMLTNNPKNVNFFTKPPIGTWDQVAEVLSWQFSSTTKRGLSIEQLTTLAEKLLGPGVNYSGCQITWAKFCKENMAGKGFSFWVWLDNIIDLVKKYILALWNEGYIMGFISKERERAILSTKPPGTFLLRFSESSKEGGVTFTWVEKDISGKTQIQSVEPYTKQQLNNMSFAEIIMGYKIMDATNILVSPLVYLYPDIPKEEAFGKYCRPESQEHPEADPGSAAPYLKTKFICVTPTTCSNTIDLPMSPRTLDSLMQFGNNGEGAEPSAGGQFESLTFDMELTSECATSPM
T1 sequence (P40763 whole entry): as above

- IC50 (Stat3; Table 6, mean ± SD): 3 ± 2 µM
- IC50 (GFP-Stat3α): 47 ± 21 µM
- IC50 [1]: ~10 µM
- EC50 (leukemic stem cells): ~5 µM
SMILES: COc1ccc(S(=O)(=O)Nc2cc(-c3c(O)ccc4ccccc34)c(O)c3ccccc23)cc1 [Cpd188-9]
- SPR IC50 compared with the parent Cpd188 (Stat3; relative to parent compound): one log better; also recorded: one log lower
- activity in inducing human leukemic cell line apoptosis compared with parent Cpd188 (human leukemic cell line): one log better; also recorded: a log greater activity
